Paper PMC10227015, “From a drug repositioning to a structure-based drug design approach to tackle acute lymphoblastic leukemia” (Nature Communications, 2023)
Several values for one entry are separate records, joined by “and”; a condition that tells them apart may be missing. Equal entries are not always repeated.

Legend:
GSK3B = target: T1, GSK3B (Homo sapiens, UniProt P49841); experiment: KINOMEscan competition binding; conditions: OR0642 1 µM; read-out: %Control
T1 construct: purchased Eurofins DiscoverX (KINOMEscan scanEDGE 97)
Experimental: (§1) Kinome profiling was provided by Eurofins DiscoverX Corporation. Determination of the % control activity for 97 kinases was obtained through an active site-directed competition binding assay that quantitatively measure interactions between compound and kinases. OR0642 was used at 1 μM.
(§2) Supplementary Table 3. KINOMEscan™ Profiling of OR0642. Competition binding assay to
(§3) quantitatively measure interactions between OR0642 (1 µM) and 97 human kinases and disease
(§4) relevant mutant variants.

KIT = target: T2, KIT (Homo sapiens, UniProt P10721); experiment: KINOMEscan competition binding; conditions: OR0642 1 µM; read-out: %Control
T2 construct: purchased Eurofins DiscoverX (KINOMEscan scanEDGE 97)
Experimental: as §1, §2, §3, §4

ERBB2 = target: T3, ERBB2 (Homo sapiens, UniProt P04626); experiment: KINOMEscan competition binding; conditions: OR0642 1 µM; read-out: %Control
T3 construct: purchased Eurofins DiscoverX (KINOMEscan scanEDGE 97)
Experimental: as §1, §2, §3, §4

AURKB = target: T4, AURKB (Homo sapiens, UniProt Q96GD4); experiment: KINOMEscan competition binding; conditions: OR0642 1 µM; read-out: %Control
T4 construct: purchased Eurofins DiscoverX (KINOMEscan scanEDGE 97)
Experimental: as §1, §2, §3, §4

FLT3 = target: T5, FLT3 (Homo sapiens, UniProt P36888); experiment: KINOMEscan competition binding; conditions: OR0642 1 µM; read-out: %Control
T5 construct: purchased Eurofins DiscoverX (KINOMEscan scanEDGE 97)
Experimental: as §1, §2, §3, §4

CDK9 = target: T6, CDK9 (Homo sapiens, UniProt P50750); experiment: KINOMEscan competition binding; conditions: OR0642 1 µM; read-out: %Control
T6 construct: purchased Eurofins DiscoverX (KINOMEscan scanEDGE 97)
Experimental: as §1, §2, §3, §4

97 kinases = experiment: Kinome profiling (KINOMEscan, whole panel); type: binding, human; conditions: OR0642 1 µM
Experimental: as §1
Supplementary Table 3. KINOMEscan™ Profiling of OR0642. Competition binding assay to quantitatively measure interactions between OR0642 (1 µM) and 97 human kinases and disease relevant mutant variants.
Target Gene Symbol %Control Target Gene Symbol %Control […]

[1] = test system: UPNT525 patient-derived xenograft; experiment: T-ALL PDX mouse model UPNT525; type: in vivo; parameters: hCD45+ populations determined by flux cytometry at day 19: unit not given here
Experimental: Temperature was maintained between 20 and 24 °C and the hygrometry between 40 and 60%. Sex was not considered in the study design and studies were realized in male mice, as toxicity and pharmacokinetics were performed previously in male mice. […] OR0642 was administered in its hydrochloride salt form (OR0642-HCl). Drug administration protocol is detailed in Fig. 4a. […] Patient-derived xenograft was generated from a primary-T-ALL (UPNT525) sample[28],[29]. Briefly, we injected 1,000,000 cells in 100 μl of PBS by intravenous (IV) retro orbital injection in NSG mice. […] Drug administration protocol is detailed in Fig. 5d. Disease propagation was monitored at day 19 by hCD45 detection in peripheral blood. […] Figures exemplifying the gating strategy are provided in the Supplementary Information (Supplementary Figs. 32 and 33).

[2] = PDX mouse model UPNT525, dT 1,5 g/Kg, individual mice

T4 sequence (Q96GD4 whole entry): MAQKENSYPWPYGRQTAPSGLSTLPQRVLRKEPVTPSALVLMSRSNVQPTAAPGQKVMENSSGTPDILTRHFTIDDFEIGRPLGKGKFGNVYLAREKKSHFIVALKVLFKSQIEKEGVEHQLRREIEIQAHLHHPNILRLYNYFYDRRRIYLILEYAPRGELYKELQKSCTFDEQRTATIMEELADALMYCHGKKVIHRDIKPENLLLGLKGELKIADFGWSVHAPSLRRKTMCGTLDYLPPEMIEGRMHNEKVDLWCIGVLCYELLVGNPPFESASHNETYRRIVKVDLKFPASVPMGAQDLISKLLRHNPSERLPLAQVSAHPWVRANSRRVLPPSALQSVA
T5 sequence (P36888 27-993): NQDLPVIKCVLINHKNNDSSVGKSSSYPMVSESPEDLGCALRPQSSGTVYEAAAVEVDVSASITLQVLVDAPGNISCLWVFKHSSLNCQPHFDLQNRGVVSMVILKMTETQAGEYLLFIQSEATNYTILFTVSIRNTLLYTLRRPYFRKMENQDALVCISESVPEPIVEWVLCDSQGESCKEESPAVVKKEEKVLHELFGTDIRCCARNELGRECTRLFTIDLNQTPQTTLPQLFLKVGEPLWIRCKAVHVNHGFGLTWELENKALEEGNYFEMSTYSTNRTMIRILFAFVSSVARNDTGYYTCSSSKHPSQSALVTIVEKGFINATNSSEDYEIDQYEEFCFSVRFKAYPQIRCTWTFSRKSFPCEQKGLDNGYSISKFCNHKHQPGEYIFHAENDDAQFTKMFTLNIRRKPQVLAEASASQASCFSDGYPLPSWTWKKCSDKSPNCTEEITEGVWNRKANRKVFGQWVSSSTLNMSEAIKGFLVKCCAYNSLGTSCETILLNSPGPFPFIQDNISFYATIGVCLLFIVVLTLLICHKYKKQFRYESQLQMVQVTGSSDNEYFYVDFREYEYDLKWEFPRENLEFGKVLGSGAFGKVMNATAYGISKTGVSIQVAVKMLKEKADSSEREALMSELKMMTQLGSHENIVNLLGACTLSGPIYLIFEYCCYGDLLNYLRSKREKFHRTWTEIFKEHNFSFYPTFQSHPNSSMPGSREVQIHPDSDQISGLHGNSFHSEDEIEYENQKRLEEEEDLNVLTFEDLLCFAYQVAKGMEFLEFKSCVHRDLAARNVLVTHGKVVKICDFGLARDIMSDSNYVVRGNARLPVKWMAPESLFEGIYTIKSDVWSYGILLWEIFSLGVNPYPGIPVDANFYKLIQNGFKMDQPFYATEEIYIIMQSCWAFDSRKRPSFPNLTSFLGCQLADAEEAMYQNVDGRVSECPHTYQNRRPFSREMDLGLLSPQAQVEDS
T3 sequence (P04626 23-1255): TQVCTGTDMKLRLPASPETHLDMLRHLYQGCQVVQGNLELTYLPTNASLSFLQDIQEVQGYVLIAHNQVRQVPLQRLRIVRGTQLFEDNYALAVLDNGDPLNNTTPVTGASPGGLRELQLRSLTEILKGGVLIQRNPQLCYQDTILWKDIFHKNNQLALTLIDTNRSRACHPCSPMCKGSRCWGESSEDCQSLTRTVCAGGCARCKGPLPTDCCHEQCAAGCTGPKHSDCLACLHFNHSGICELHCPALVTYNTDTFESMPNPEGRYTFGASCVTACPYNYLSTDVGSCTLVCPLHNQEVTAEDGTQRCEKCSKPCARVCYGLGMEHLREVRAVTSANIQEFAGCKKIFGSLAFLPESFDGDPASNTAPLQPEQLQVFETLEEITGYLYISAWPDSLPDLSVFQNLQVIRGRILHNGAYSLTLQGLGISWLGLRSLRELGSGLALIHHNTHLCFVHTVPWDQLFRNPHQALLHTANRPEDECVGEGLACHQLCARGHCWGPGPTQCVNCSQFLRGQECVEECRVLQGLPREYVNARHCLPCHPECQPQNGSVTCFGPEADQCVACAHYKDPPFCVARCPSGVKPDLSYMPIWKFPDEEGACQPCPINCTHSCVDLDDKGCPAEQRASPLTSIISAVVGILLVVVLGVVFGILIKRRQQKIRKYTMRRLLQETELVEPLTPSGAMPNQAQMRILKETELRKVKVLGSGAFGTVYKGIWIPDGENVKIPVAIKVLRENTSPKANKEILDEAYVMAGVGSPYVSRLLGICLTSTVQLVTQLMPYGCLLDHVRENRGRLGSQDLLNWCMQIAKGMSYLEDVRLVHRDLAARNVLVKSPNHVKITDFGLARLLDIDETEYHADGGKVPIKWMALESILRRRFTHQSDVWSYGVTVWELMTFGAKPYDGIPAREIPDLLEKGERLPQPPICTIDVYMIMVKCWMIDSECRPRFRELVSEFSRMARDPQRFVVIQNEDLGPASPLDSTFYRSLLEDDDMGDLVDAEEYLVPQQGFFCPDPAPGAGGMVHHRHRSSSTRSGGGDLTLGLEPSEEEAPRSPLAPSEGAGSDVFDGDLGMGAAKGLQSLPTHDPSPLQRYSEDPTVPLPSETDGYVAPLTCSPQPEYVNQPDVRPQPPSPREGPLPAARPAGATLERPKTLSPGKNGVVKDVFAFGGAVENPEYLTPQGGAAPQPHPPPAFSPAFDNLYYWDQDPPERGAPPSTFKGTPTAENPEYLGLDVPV
T6 sequence (P50750 whole entry): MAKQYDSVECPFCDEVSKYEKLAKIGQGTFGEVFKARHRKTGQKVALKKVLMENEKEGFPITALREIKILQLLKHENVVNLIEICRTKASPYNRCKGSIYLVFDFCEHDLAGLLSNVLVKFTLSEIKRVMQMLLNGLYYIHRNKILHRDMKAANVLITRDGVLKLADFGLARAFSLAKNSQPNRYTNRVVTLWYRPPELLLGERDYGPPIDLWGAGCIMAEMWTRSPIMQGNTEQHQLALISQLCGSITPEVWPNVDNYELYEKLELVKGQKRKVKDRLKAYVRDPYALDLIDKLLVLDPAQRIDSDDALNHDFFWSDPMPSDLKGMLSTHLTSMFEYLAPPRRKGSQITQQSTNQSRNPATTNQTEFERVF
T1 sequence (P49841 whole entry): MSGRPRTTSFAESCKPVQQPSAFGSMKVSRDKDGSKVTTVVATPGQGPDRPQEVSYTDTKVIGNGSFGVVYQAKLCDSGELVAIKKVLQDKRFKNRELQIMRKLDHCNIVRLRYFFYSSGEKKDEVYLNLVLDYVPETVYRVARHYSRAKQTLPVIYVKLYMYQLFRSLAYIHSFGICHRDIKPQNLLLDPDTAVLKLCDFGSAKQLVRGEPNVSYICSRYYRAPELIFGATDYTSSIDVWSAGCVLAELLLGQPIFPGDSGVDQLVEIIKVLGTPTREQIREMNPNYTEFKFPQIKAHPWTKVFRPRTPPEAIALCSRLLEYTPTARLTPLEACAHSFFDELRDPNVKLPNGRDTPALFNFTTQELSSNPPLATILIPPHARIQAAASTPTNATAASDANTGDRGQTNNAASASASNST
T2 sequence (P10721 26-976): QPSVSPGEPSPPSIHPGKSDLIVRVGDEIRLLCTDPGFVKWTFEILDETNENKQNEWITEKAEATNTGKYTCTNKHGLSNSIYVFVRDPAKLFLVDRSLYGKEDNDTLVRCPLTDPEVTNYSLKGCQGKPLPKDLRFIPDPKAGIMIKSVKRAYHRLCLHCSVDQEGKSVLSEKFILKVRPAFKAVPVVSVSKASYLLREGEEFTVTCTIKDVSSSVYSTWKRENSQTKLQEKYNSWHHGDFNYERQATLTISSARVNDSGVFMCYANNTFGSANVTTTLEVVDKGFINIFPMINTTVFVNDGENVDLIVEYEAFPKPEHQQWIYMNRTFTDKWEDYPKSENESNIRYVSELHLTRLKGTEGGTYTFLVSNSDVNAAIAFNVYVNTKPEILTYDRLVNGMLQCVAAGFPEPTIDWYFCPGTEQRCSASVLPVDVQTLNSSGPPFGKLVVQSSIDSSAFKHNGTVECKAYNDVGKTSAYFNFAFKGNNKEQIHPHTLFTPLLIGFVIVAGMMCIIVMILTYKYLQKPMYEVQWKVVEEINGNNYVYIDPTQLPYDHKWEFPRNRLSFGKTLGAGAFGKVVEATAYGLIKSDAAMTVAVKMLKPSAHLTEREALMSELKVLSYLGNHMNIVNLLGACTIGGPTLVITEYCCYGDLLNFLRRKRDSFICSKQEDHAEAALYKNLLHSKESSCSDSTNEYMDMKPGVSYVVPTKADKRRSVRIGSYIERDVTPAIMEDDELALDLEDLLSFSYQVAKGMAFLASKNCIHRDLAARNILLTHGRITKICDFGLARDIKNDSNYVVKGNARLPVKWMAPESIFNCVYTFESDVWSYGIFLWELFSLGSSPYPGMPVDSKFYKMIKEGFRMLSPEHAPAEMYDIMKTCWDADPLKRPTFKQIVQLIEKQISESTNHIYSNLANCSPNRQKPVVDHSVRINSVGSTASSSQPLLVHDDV

Row | SMILES | remaining binding at 1 µM (GSK3B) | remaining binding at 1 µM (KIT) | remaining binding at 1 µM (ERBB2) | remaining binding at 1 µM (AURKB) | remaining binding at 1 µM (FLT3) | remaining binding at 1 µM (CDK9) | kinome-wide profiling (97 kinases) | Survival days [1, 2] | hCD45+ populations determined by flux cytometry at day 19 [1, 2] | median survival ([1]; dT 1.5 g/kg, OR0642 40 mg/kg IP BID 5 days a week) | effect on disease progression ([1]; day 19)
1 | CCCN(c1nc(-c2nc(N)cc(N)n2)cs1)c1cc(-c2ccc(S(=O)(=O)N3CCN(C)CC3)cc2C(F)(F)F)ccc1C [OR0642] | 100% | 91% | 100% | 85% | 100% | 98% | none of the 97 kinases tested was inhibited |  |  |  | 
2 | Cc1cn([C@H]2C[C@H](O)[C@@H](CO)O2)c(=O)[nH]c1=O [dT, thymidine] |  |  |  |  |  |  |  | 26 days and 38 days and 42 days | 164 and 330 and 108 and 177 and 168 and 318 | 38 days | significant decrease in disease progression
